Measurements from publication PMC5225157 (Biochemistry, 2016).
* marks the point of attachment. Dansyl = CN(C)c1cccc2c(S(=O)(=O)*)cccc12

Experiments:
human CP4H1 [1] = biological target: T1, human CP4H1 (Homo sapiens, UniProt P13674); assay: Inhibition of human CP4H1 activity by alkene isosteres; format: biochemical; conditions: for inhibition of catalysis by human CP4H: dansyl isostere 100 µM, dansylGPPGOEt 0.50 mM, pH 7.8, 30 °C, mean (± SD) of three independent experiments; for inhibition of catalysis by human CP4H / relative inhibitory potency, cis versus trans Cbz isosteres: α-ketoglutarate 1.00 mM; for relative inhibitory potency, cis versus trans Cbz isosteres: Cbz isostere 1.00 mM, CbzGPPGOEt 1.00 mM as substrate, pH 7.8, three independent experiments
T1 sequence (P13674 18-534): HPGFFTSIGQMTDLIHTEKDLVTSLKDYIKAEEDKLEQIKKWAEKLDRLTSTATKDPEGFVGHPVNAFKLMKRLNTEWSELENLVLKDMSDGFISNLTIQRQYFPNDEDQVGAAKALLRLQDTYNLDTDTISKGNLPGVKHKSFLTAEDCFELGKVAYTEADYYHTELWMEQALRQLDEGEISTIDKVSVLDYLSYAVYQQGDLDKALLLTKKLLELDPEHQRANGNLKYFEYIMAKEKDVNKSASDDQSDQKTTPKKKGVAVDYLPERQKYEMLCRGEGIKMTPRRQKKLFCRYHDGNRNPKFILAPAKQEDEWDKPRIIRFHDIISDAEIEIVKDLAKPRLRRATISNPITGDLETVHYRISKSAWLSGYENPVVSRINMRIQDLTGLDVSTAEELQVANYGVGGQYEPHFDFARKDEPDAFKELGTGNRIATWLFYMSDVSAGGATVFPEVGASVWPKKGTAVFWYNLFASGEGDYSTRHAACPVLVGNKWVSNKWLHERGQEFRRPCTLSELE
T1 sequence (P07237 18-508 partner): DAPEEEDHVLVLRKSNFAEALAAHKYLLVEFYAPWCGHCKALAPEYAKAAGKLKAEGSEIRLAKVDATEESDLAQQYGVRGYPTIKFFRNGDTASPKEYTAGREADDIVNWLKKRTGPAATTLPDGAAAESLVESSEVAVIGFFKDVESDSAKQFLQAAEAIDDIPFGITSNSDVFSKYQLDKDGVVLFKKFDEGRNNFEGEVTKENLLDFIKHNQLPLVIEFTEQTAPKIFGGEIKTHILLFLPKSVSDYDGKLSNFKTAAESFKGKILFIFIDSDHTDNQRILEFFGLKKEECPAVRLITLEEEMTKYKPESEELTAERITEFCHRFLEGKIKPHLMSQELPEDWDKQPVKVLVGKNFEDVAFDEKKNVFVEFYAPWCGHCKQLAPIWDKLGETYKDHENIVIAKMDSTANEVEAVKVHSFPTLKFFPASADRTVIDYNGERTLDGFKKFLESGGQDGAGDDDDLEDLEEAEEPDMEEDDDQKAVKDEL

[2] = test system: C. reinhardtii P4H-1 (CrP4H-1); assay: UPLC assay of dansyl peptides as substrates; format: biochemical, Chlamydomonas reinhardtii; conditions: for hydroxylation of dansyl isosteres by CrP4H-1: UPLC, data not shown
[3] = test system: C. reinhardtii P4H-1 (CrP4H-1); conditions: isostere 100 µM, dansylGPPGOEt 0.50 mM, α-ketoglutarate 1.00 mM, NHis6-CrP4H-1 1.2 µM, 30 °C, 1 h, UPLC; three independent experiments
CP4H = conditions: a CP4H; cited from earlier work
human CP4H1 [4] = biological target: T1, human CP4H1; assay: UPLC assay of model peptides and isosteres as substrates; format: biochemical

CCOC(=O)CNC(=O)[C@@H]1CCC/C1=C\[C@@H]1CCCN1C(=O)CNS(=O)(=O)c1cccc2c(N(C)C)cccc12 [Compound 3, dansylGPtransPGOEt]
IC50 (human CP4H1 [1]): 410 ± 30 µM | inhibition of catalysis by human CP4H (human CP4H1 [1]): inhibitors of catalysis by human CP4H | hydroxylation of dansyl isosteres by CrP4H-1 [2]: did not observe hydroxylation | inhibition of CrP4H-1 [3]: served as inhibitors of CrP4H-1

CCOC(=O)CNC(=O)[C@@H]1CCC/C1=C/[C@@H]1CCCN1C(=O)CNS(=O)(=O)c1cccc2c(N(C)C)cccc12 [Compound 5, dansylGPcisPGOEt]
IC50 (human CP4H1 [1]): 75 ± 6 µM | Ki (human CP4H1 [1]): 56 ± 13 µM | inhibition of catalysis by human CP4H (human CP4H1 [1]): inhibitors of catalysis by human CP4H | hydroxylation of dansyl isosteres by CrP4H-1 [2]: did not observe hydroxylation | inhibition of CrP4H-1 [3]: served as inhibitors of CrP4H-1

(ProProGly)10
mode of substrate inhibition versus α-ketoglutarate (CP4H): competitive with the cosubstrate α-ketoglutarate | substrate inhibition during turnover of longer collagen mimetic peptide (CP4H): Substrate inhibition had been observed

CbzGPcisPGOEt [Compound 6]
relative inhibitory potency, cis versus trans Cbz isosteres (human CP4H1 [1]): the cis isostere inhibits with greater potency than does the trans isostere

CbzGPtransPGOEt [Compound 4]
relative inhibitory potency, cis versus trans Cbz isosteres (human CP4H1 [1]): the cis isostere inhibits with greater potency than does the trans isostere

dansylGlyProProGlyOEt (Dansyl-GPPG-OEt; SMILES CCOC(=O)CNC(=O)[C@@H]1CCCN1C(=O)[C@@H]1CCCN1C(=O)CNS(=O)(=O)c1cccc2c(N(C)C)cccc12) [Compound 1]
Ki (human CP4H1 [4]; read-out: Ki (dissociation constant for substrate binding in an inhibitory manner), substrate-inhibition fit (R^2 = 0.98), dansylGPPGOEt 58–1860 µM, α-ketoglutarate 1.00 mM, CP4H1 100 nM, pH 7.8, 30 °C, 15 min, UPLC A289, triplicate): 300 ± 100 µM

dansylGlyProProGlyOEt [Compound 1]
kinetic pattern of turnover (human CP4H1 [4]; dansylGPPGOEt 58–1860 µM, α-ketoglutarate 1.00 mM, pH 7.8, 30 °C): substrate inhibition | substrate inhibition at saturating α-ketoglutarate (human CP4H1 [4]; saturating concentrations of α-ketoglutarate, human CP4H1): observed even at saturating concentrations of α-ketoglutarate | kinetic pattern of turnover (CrP4H-1) ([2]; dansylGPPGOEt 212–2120 µM, α-ketoglutarate 1.00 mM): substrate inhibition phenomenon similar to that observed for human CP4H1
